From article PMC7906907, “Targeting STAT3 by a small molecule suppresses pancreatic cancer progression” (Oncogene, 2021)
“And” between values parts separate entries of the source, which are not always exact repeats. Equal entries are not always repeated.

What was measured:
[1] = molecular target: His-STAT3^127-722 protein (Homo sapiens, UniProt P40763); assay: Fluorescence polarization (FP) assay, STAT3-phosphopeptide interaction; type: binding; set-up: We purified amino acids 127–722 of the STAT3 protein for this assay; made in house; settings: N4 pre-incubated with STAT3 protein 1 h, then 10 nM labeled peptide 1 h; read-out: IC50, block of the STAT3-peptide interaction
Sequence of His-STAT3^127-722 protein (P40763 127-722): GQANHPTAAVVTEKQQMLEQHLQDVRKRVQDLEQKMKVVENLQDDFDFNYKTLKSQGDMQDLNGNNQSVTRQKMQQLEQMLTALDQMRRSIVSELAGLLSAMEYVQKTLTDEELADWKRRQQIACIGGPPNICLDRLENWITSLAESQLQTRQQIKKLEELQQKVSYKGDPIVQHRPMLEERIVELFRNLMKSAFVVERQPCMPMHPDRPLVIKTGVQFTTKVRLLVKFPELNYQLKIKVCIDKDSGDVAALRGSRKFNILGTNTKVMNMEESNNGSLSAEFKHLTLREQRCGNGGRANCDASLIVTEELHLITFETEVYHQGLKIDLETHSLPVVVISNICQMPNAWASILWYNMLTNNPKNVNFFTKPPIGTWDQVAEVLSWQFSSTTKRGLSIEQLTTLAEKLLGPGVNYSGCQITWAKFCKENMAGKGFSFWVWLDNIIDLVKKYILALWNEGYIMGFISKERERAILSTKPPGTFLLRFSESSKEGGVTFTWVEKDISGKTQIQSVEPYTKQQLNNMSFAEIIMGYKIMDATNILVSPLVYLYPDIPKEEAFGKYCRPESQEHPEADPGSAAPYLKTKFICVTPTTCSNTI
Protocol: A Purified STAT3 protein was incubated with labeled phosphopeptide, 5-carboxyfluorescein-GpYLPQTV-NH2 for 1 h at 37 °C. FP signals were measured, and the data were analyzed using Graph Pad 7.0 software. […] C Different concentrations of N4 were pre-incubated with recombined STAT3 protein for 1 h, then 10 nM of labeled peptide was added for 1 h. The IC50 was calculated using Graph Pad 7.0.
The labeled phosphopeptide: 5-carboxyfluorescein-GpYLPQTV-NH2 (where pY represents phospho-Tyr) was used as the STAT3 binding probe. To evaluate the effect of compounds in inhibiting STAT3-peptide interaction, serial dilutions of the STAT3 competitors were prepared. The diluted compounds were added to the reaction mixture in 100 μl of FP buffer (50 mM HEPES, pH 7.5, 150 mM NaCl, 0.1% NP-40, and 1 mM dithiothreitol) containing 500 nM his-STAT3^127–722 protein for pre-incubation at 37 °C for 1 h. Then, 10 nM of the labeled peptide was added and incubated for 1 h. After incubation, FP was measured on a Cytation^TM 5 cell imaging multi-mode Reader (BioTek) using excitation and emission wavelengths of 480 nm and 535 nm, respectively. Each reaction was repeated two or three times. Binding or competitive parameters were calculated from a nonlinear regression using GraphPad Prism 7.0.

[2] = test system: Pan02 cells; assay: EMT markers by immunofluorescence and western blot; type: cell-based; settings: IF and WB, 24 h
Protocol: Fig. 8 N4 reverses EMT phenotype and shapes the microenvironment of PDAC. A IF staining was performed to detected the level of E-cadherin (red) and vimentin (green) after PAN02 treatment with the indicated concentrations of N4 for 24 h. DAPI (blue) was used to stain Nuclei. Scale bar, 20 μm. B Western blot assays were used to examine the expression of E-cadherin, N-cadherin and vimentin after PAN02 treatment with N4 for 24 h. C IHC of vimentin, F4/80 and α-SMA in tumor tissue from orthotopic models. Data represents the mean ± SD; *P < 0.05, **P < 0.01, ***P < 0.001, ****P < 0.0001, n.s. not significant by one-way ANOVA followed by multiple-comparison tests. D Quantification of vimentin, F4/80 and α-SMA in pancreatic tumors from PDAC. Scale bar, 50 μm.
(§1) Western blotting was performed as previously described. Briefly, cells were treated with indicated compounds and then lysed by boiling. […]
(§2) Immunofluorescence staining was performed as previously described. […] Images were recorded by confocal microscopy (Leica).

[3] = test system: STAT3 Tyr705 phosphorylation; assay: Western blot of STAT3 activation in pancreatic cancer cells; type: cell-based
Protocol: (§3) Fig. 2 N4 inhibits STAT3 activation in pancreatic cancer cells. A PANC-1, CAPAN-2, and BXPC-3 cells were treated with the indicated concentrations of N4 for 24 h. Then, p-STAT3 (Y705), p-STAT3 (S727), and STAT3 were detected by western blot assays with glyceraldehyde 3-phosphate dehydrogenase (GAPDH) used as the loading control. B Pancreatic cancer cells were starved in a medium lacking fetal bovine serum (FBS; basic medium) for 24 h, and then pretreated with N4 in basic medium for 24 h. Then, stimulated with IL-6 (20 ng/mL) for 30 min and lysed for western blot analysis using the indicated antibodies. C Expression levels of STAT3 downstream genes were detected by western blot following treatment of PANC-1 and CAPAN-2 cells with N4. D PANC-1 cells were seeded and allowed to attach, and then pretreated with 2 μM of N4 in FBS-free medium for 24 h. The cells were stimulated for 30 min using IL-6 (20 ng/mL). The STAT3 antibody (green) and 4, 6-diamidino-2-phenylindole (DAPI) (blue) was used for staining and STAT3 and the nucleus, respectively. The samples were photographed and analyzed. The scale bar represents 20 μm. E After 24 h treatment with 2 μM N4, PANC-1 cells were stimulated with IL-6 (20 ng/mL) for 30 min, and the cytoplasmic and nuclear extractions were analyzed by western blot. p-STAT3 (Y705) was used to detect STAT3, and GAPDH and H3 were used as the cytoplasm and nucleus internal control, respectively.
as §1

[4] = test system: STAT3 nuclear translocation; assay: Immunofluorescence of STAT3 nuclear translocation; type: cell-based; settings: PANC-1 cells, 2 μM for 24 h, then IL-6
Protocol: as §3, with “The STAT3 antibody (green) and 4, 6-diamidino-2-phenylindole (DAPI) (blue) was used for staining and STAT3 and the nucleus, respectively.” left out, “The scale bar represents 20 μm.” left out
as §2

[5] = PANC-1, CAPAN-2, BXPC-3 cells, 24 h

COc1cc2c(cc1C(=O)Nc1cccc3cccnc13)CCC1C(C)(C)C(=O)C(C#N)=C[C@]21C (stereo partly drawn) [N4]
IC50 [1]: 0.57 µM and 0.568 µM | epithelial and mesenchymal markers [2]: upregulation of E-cadherin, and downregulation of N-cadherin and vimentin | STAT3 Tyr705 phosphorylation [3, 5]: selectively blocked | Ser-727 phosphorylation and STAT3 protein expression [3, 5]: no obvious inhibition | SHP2 (PTPase), p-STAT1, p-STAT5, p-extracellular signal-regulated kinase, and p-AKT levels ([3]; western blots): no obvious influence | STAT3 nuclear translocation [4]: substantially impaired
